# From PMC11140455 (RSC Advances, 2024)
# Where “and” joins values, the source holds several entries; their conditions need not be identical. Identical values can stand only once. Like-named read-outs stand apart in the source and are kept apart here.
# Columns and labels:
# [1] = system: BaF3/NMP-ALK cancer cell line; experiment: Antiproliferative activity, CCK-8 assay, BaF3/ALK cells; format: cell-based, mouse; conditions: read-out: BaF3/NMP-ALK IC50
# [2] = system: H2228 EML4-ALK cancer cell line; experiment: Antiproliferative activity, MTT assay, H2228 monolayer; format: cell-based, human; conditions: read-out: H2228 IC50 EML4-ALK
# EA.hy926 cells = experiment: Toxicity assay on human normal cells, EA.hy926; format: cell-based; conditions: for IC50: Homo sapiens
# HK-2 cells = experiment: Toxicity assay on human normal cells, HK-2; format: cell-based
# H2228 xenograft = experiment: In vivo anti-tumor evaluation, H2228 xenograft in nude mice; conditions: 20 mg kg^-1, oral, 14 days
# L02 cells = experiment: Toxicity assay on human normal cells, L02; format: cell-based; conditions: L02, read-out: IC50 L02
# [3] = CCK-8, 48 h, at least three experiments
# [4] = MTT, 48 h, mean ± SD, at least three experiments
Molecule,"IC50 [1, 3] [nM]","IC50 [2, 4] [nM]",also measured
"Cc1cc(Nc2ncc(Cl)c(Nc3ccccc3S(=O)(=O)C(C)C)n2)c(OC(C)C)cc1C1CCNCC1 [Ceritinib, ceritinib]",,,"IC50 ([1]; Mus musculus, BaF3, 48 h): 18 ± 1 nM; EA.hy926 cell morphology (EA.hy926 cells; 48 h, 1 μM (Fig. 9)): abnormal morphology changes; IC50 (EA.hy926 cells; EA.hy 926, read-out: IC50 EA.hy926 (active)): 3420 ± 560 nM; IC50 (EA.hy926 cells; EA.hy 926, read-out: IC50 EA.hy926 (quiescent)): 2440 ± 340 nM; HK-2 cell morphology (HK-2 cells; 48 h, 1 μM (Fig. 9)): abnormal morphology changes; IC50 (HK-2 cells; Homo sapiens, HK-2, read-out: IC50 HK-2): 1440 ± 250 nM; Tumor growth inhibitory rate (TGI) (H2228 xenograft): 72.8% and 72.0%; Tumor volume changes (inhibitory effects) (H2228 xenograft): 131.00 mm^3; IC50 (L02 cells): 3420 ± 560 nM; IC50 ([2]; Homo sapiens, NCI-H2228, 48 h): 25 ± 10 nM"
"4-Chloro-N5-(2-(ethylsulfinyl)phenyl)-N2-(2-methoxy-5-methyl-4-(1-methylpiperidin-4-yl)phenyl)pyrimidine-2,5-diamine [Compound 18e]",33 ± 10,44 ± 12,
"4-Chloro-N2-(2-ethoxy-5-methyl-4-(1-methylpiperidin-4-yl)phenyl)-N5-(2-(ethylsulfinyl)-4-fluorophenyl)pyrimidine-2,5-diamine [Compound 18g]",29 ± 12,33 ± 7,
"4-Chloro-N5-(2-(ethylsulfinyl)-4-fluorophenyl)-N2-(2-isopropoxy-5-methyl-4-(1-methylpiperidin-4-yl)phenyl)pyrimidine-2,5-diamine [Compound 18L]",28 ± 8,31 ± 10,
"4-Chloro-N5-(2-(ethylsulfinyl)-4-fluorophenyl)-N2-(2-methoxy-5-methyl-4-(1-methylpiperidin-4-yl)phenyl)pyrimidine-2,5-diamine [Compound 18f]",31 ± 13,37 ± 11,

# Continued, in another order:
"IC50 [1, 3] [nM]","IC50 [2, 4] [nM]",Molecule,also measured
77 ± 15,81 ± 28,"4-Chloro-N5-(4-chloro-2-(ethylsulfinyl)phenyl)-N2-(2-isopropoxy-5-methyl-4-(1-methylpiperidin-4-yl)phenyl)pyrimidine-2,5-diamine [Compound 18i]",
47 ± 15,58 ± 16,"4-Chloro-N5-(2-(ethylsulfinyl)-4-fluorophenyl)-N2-(2-methoxy-5-methyl-4-(piperidin-4-yl)phenyl)pyrimidine-2,5-diamine [Compound 18h]",
56 ± 4,63 ± 8,"4-Chloro-N5-(2-(ethylsulfinyl)-4-fluorophenyl)-N2-(2-isopropoxy-5-methyl-4-(piperidin-4-yl)phenyl)pyrimidine-2,5-diamine [Compound 18j]",
24 ± 5,57 ± 6,"4-Chloro-N5-(2-(ethylsulfinyl)phenyl)-N2-(2-methoxy-4-(1-methylpiperidin-4-yl)phenyl)pyrimidine-2,5-diamine [Compound 18k]",
